Laboratory results reported in patent publication US20260364214A1, “MULTIVALENT FIBROBLAST ACTIVATION PROTEIN LIGANDS FOR TARGETED DELIVERY APPLICATIONS” (Philochem AG, priority 2022, published 2026).

Key:
[1] = test system: SK-RC-52.hFAP tumors; assay: Quantitative biodistribution in SK-RC-52.hFAP tumor bearing mice; format: in vivo, mouse (female athymic Balb/c AnNRj-Foxn1); settings: i.v. 250 nmol/kg, 50 MBq/kg
Experimental: SK-RC-52.hFAP were grown to 80% confluence in RPMI-1640 with 10% fetal bovine serum (FBS) and 1% antibiotic-antimycotic and detached with Trypsin-EDTA (ethylenediaminetetraacetic acid) 0.05%. Tumor cells were resuspended in Hanks' Balanced Salt Solution medium. Aliquots of 5 million cells (100 μL of suspension) were injected subcutaneously in the right flank of female athymic Balb/c AnNRj-Foxn1 mice (6 to 8 wk of age).
Radiolabeling of ESV6-DOTAGA, Bi-ESV6-DOTAGA, Tri-ESV6-DOTAGA, Tetra-ESV6-DOTAGA, Hexa-ESV6-DOTAGA, Octa-ESV6-DOTAGA and FAP-2286 with lutetium-177 (a therapeutic radionuclide) was performed with different specific activities for three different studies (biodistribution, therapy and dose optimization).
Prior to the biodistribution study, precursors (100 nmol) were dissolved in 100 μL of milliQ water and diluted with 200 μL of sodium acetate (1 M in water, pH=4.5). 20 MBq of ^177Lu solution were added and the mixture was heated at 90 °C for 10 minutes, followed by dilution with […] of PBS to achieve final volume of 2 mL (20 doses of 100 μL each).
ESV6-DOTAGA, Bi-ESV6-DOTAGA, Tri-ESV6-DOTAGA, Tetra-ESV6-DOTAGA, Hexa-ESV6-DOTAGA, Octa-ESV6-DOTAGA and FAP-2286 were radiolabeled with ^177Lu as described above. Tumors were allowed to grow to an average volume of 300 mm^3. Mice were randomized and injected intravenously with radiolabeled preparations of ^177Lu-ESV6, ^177Lu-Bi-ESV6, ^177Lu-Tri-ESV6, Tetra-ESV6-DOTAGA, Hexa-ESV6-DOTAGA, Octa-ESV6-DOTAGA or ^177Lu-FAP-2286 (250 nmol/kg; 50 MBq/kg). Mice were euthanized at different time-points after the intravenous injection by CO2 asphyxiation. Tumors, organs, and blood were collected, weighted, and radioactivity was measured with a Packard Cobra Gamma Counter. Values are expressed as percent ID/g±SD [FIG. 4]. The % ID/g in the tumors was corrected considering the SK-RC-52.hFAP tumor growth rate.
Quantitative in vivo biodistribution of ^177Lu-ESV6-DOTAGA, ^177Lu-Bi-ESV6-DOTAGA, ^177Lu-Tri-ESV6-DOTAGA, ^177Lu-FAP-2286, Tetra-ESV6-DOTAGA, Hexa-ESV6-DOTAGA and Octa-ESV6-DOTAGA at different time points after intravenous administration (250 nmol/kg, 50 MBq/kg) in mice bearing SK-RC-52.hFAP tumors, are shown in Tables 1 to 4 and 10 to 12. Data are reported as % ID/g±standard deviation.
Tumor-to-organ ratios of ^177Lu-ESV6-DOTAGA, ^177Lu-Bi-ESV6-DOTAGA, ^177Lu-Tri-ESV6-DOTAGA, ^177Lu-FAP-2286, Tetra-ESV6-DOTAGA, Hexa-ESV6-DOTAGA and Octa-ESV6-DOTAGA, at different time points after intravenous administration (250 nmol/kg, 50 MBq/kg) in mice bearing SK-RC-52.hFAP tumors, are shown in Tables 5 to 8 and 13 to 15. Avg.=average; Std.d=standard deviation.

[2] = Determination of Log D7.4 (1-octanol/PBS); format: physicochemical; settings: 1-octanol/PBS pH 7.4; 177Lu-labeled
Experimental: The lipophilicity of ^177Lu-ESV6, ^177Lu-Bi-ESV6, ^177Lu-Tri-ESV6 and ^177Lu-FAP-2286 was determined as follows. 100 μL aliquots of the radioligand (~1 MBq) in PBS buffer were added to PBS buffer (500 μL, pH 7.4) and 1-octanol (600 μL). The two-layer mixture were vigorously shaken for 10 minutes on a vortex mixer and then centrifuged at 700 rpm for 5 min to facilitate the separation. 100 μL aliquots of both layers were measured in a Packard Cobra Gamma Counter and the partition coefficient was determined by dividing cpm (octanol) by cpm (PBS) and indicated as Log D7.4. • Log D7.4 (^177Lu-ESV6): −4.13 • Log D7.4 (^177Lu-Bi-ESV6): −3.75 • Log D7.4 (^177Lu-Tri-ESV6): −3.10 • Log D7.4 (^177Lu-FAP-2286): −3.05

**Q.** Which “Tumor to organs ratio, Blood” value ([1]; 24 h) does the source give for `N#C[C@@H]1CC(F)(F)CN1C(=O)CNC(=O)c1ccnc2c(NC(=O)CCC(=O)NCCNC(=O)CCC(C(=O)O)N3CCN(CC(=O)[O-])CCN(CC(=O)[O-])CCN(CC(=O)[O-])CC3)cccc12.[177Lu+3]` (stereo partly drawn) [^177Lu-ESV6-DOTAGA, reference compound] here?
**A.** 628.54

**Q.** And the “Injected dose per gram, Blood” value ([1]; 24 h post injection)?
**A.** 0.00 % ID/g

**Q.** What about the “Tumor to organs ratio, Blood” value ([1]; 48 h) of the same molecule?
**A.** 2173.00

**Q.** What about the “Injected dose per gram, Blood” value ([1]; 48 h post injection) of the same molecule?
**A.** 0.00 % ID/g

**Q.** What about the “Tumor to organs ratio, Heart” value ([1]; 24 h) of the same molecule?
**A.** 497.97

**Q.** And the “Injected dose per gram, Heart” value ([1]; 24 h post injection)?
**A.** 0.01 % ID/g

**Q.** What about the “Tumor to organs ratio, Heart” value ([1]; 48 h) of the same molecule?
**A.** 314.15

**Q.** What about the “Injected dose per gram, Heart” value ([1]; 48 h post injection) of the same molecule?
**A.** 0.00 % ID/g

**Q.** And the “Tumor to organs ratio, Intestine” value ([1]; 24 h)?
**A.** 240.54

**Q.** And the “Injected dose per gram, Intestine” value ([1]; 24 h post injection)?
**A.** 0.01 % ID/g

**Q.** And the “Tumor to organs ratio, Intestine” value ([1]; 48 h)?
**A.** 232.61

**Q.** What about the “Injected dose per gram, Intestine” value ([1]; 48 h post injection) of the same molecule?
**A.** 0.01 % ID/g

**Q.** And the “Tumor to organs ratio, Kidney” value ([1]; 24 h)?
**A.** 5.41

**Q.** And the “Injected dose per gram, Kidney” value ([1]; 24 h post injection)?
**A.** 0.47 % ID/g

**Q.** What about the “Tumor to organs ratio, Kidney” value ([1]; 48 h) of the same molecule?
**A.** 4.22

**Q.** What about the “Injected dose per gram, Kidney” value ([1]; 48 h post injection) of the same molecule?
**A.** 0.28 % ID/g

**Q.** What about the “Tumor to organs ratio, Liver” value ([1]; 24 h) of the same molecule?
**A.** 37.66

**Q.** And the “Injected dose per gram, Liver” value ([1]; 24 h post injection)?
**A.** 0.07 % ID/g

**Q.** What about the “Tumor to organs ratio, Liver” value ([1]; 48 h) of the same molecule?
**A.** 20.54

**Q.** And the “Injected dose per gram, Liver” value ([1]; 48 h post injection)?
**A.** 0.06 % ID/g

**Q.** And the “Tumor to organs ratio, Lung” value ([1]; 24 h)?
**A.** 977.01

**Q.** What about the “Injected dose per gram, Lung” value ([1]; 24 h post injection) of the same molecule?
**A.** 0.01 % ID/g

**Q.** What about the “Tumor to organs ratio, Lung” value ([1]; 48 h) of the same molecule?
**A.** 805.04

**Q.** And the “Injected dose per gram, Lung” value ([1]; 48 h post injection)?
**A.** 0.01 % ID/g

**Q.** What about the “Tumor to organs ratio, Muscle” value ([1]; 24 h) of the same molecule?
**A.** 159.12

**Q.** And the “Injected dose per gram, Muscle” value ([1]; 24 h post injection)?
**A.** 0.03 % ID/g

**Q.** What about the “Tumor to organs ratio, Muscle” value ([1]; 48 h) of the same molecule?
**A.** 142.88

**Q.** And the “Injected dose per gram, Muscle” value ([1]; 48 h post injection)?
**A.** 0.01 % ID/g

**Q.** What about the “Tumor to organs ratio, Spleen” value ([1]; 24 h) of the same molecule?
**A.** 158.68

**Q.** And the “Injected dose per gram, Spleen” value ([1]; 24 h post injection)?
**A.** 0.03 % ID/g

**Q.** What about the “Tumor to organs ratio, Spleen” value ([1]; 48 h) of the same molecule?
**A.** 503.00

**Q.** What about the “Injected dose per gram, Spleen” value ([1]; 48 h post injection) of the same molecule?
**A.** 0.01 % ID/g

**Q.** What about the “Tumor to organs ratio, Tail” value ([1]; 24 h) of the same molecule?
**A.** 48.95

**Q.** And the “Injected dose per gram, Tail” value ([1]; 24 h post injection)?
**A.** 0.05 % ID/g

**Q.** And the “Tumor to organs ratio, Tail” value ([1]; 48 h)?
**A.** 45.61

**Q.** What about the “Injected dose per gram, Tail” value ([1]; 48 h post injection) of the same molecule?
**A.** 0.03 % ID/g

**Q.** What about the “Injected dose per gram, Tumor” value ([1]; 24 h post injection) of the same molecule?
**A.** 2.53 % ID/g

**Q.** What about the “Injected dose per gram, Tumor” value ([1]; 48 h post injection) of the same molecule?
**A.** 1.19 % ID/g

**Q.** What about the “Log D7.4” value [2] of the same molecule?
**A.** −4.13
